Measured values from ChEMBL document CHEMBL4507272 (2021).

Columns and labels:
[1] = biological target: Serine/threonine-protein kinase SBK1 (Homo sapiens) (UniProt Q52WX2); details: Compound concentration 1000.0 nM
[2] = biological target: Serine/threonine-protein kinase SIK1 (Homo sapiens) (UniProt P57059); details: Compound concentration 1000.0 nM
[3] = biological target: Serine/threonine-protein kinase LATS1 (Homo sapiens) (UniProt O95835); details: Compound concentration 1000.0 nM
[4] = biological target: Dual specificity mitogen-activated protein kinase kinase 3 (Homo sapiens) (UniProt P46734); details: Compound concentration 1000.0 nM
[5] = biological target: Dual specificity protein kinase CLK3 (Homo sapiens) (UniProt P49761); details: Compound concentration 1000.0 nM
[6] = biological target: Serine/threonine-protein kinase MRCK beta (Homo sapiens) (UniProt Q9Y5S2); details: Compound concentration 1000.0 nM
[7] = biological target: BDNF/NT-3 growth factors receptor (Homo sapiens) (UniProt Q16620); details: Compound concentration 1000.0 nM
[8] = biological target: Phosphatidylinositol 4-kinase beta (Homo sapiens) (UniProt Q9UBF8); details: Compound concentration 1000.0 nM
[9] = biological target: Serine/threonine-protein kinase TAO1 (Homo sapiens) (UniProt Q7L7X3); details: Compound concentration 1000.0 nM
[10] = biological target: Serine/threonine-protein kinase N1 (Homo sapiens) (UniProt Q16512); details: Compound concentration 1000.0 nM
[11] = biological target: Rhodopsin kinase GRK7 (Homo sapiens) (UniProt Q8WTQ7); details: Compound concentration 1000.0 nM
[12] = biological target: Serine/threonine-protein kinase tousled-like 1 (Homo sapiens) (UniProt Q9UKI8); details: Compound concentration 1000.0 nM
[13] = system: Epidermal growth factor receptor (Homo sapiens), P00533 [UNDEFINED MUTATION]; details: Compound concentration 1000.0 nM
[14] = biological target: cAMP-dependent protein kinase catalytic subunit alpha (Homo sapiens) (UniProt P17612); details: Compound concentration 1000.0 nM
[15] = biological target: Serine/threonine-protein kinase PAK 6 (Homo sapiens) (UniProt Q9NQU5); details: Compound concentration 1000.0 nM
[16] = biological target: Mast/stem cell growth factor receptor Kit (Homo sapiens) (UniProt P10721); details: Compound concentration 1000.0 nM
[17] = biological target: 5-hydroxytryptamine receptor 1A (Homo sapiens) (UniProt P08908); details: Compound concentration 10.0 uM
[18] = biological target: Serine/threonine-protein kinase Nek11 (Homo sapiens) (UniProt Q8NG66); details: Compound concentration 1000.0 nM
[19] = biological target: Tyrosine-protein kinase JAK1 (Homo sapiens) (UniProt P23458); details: Compound concentration 1000.0 nM
[20] = biological target: Serine/threonine-protein kinase MARK2 (Homo sapiens) (UniProt Q7KZI7); details: Compound concentration 1000.0 nM
[21] = biological target: Aurora kinase C (Homo sapiens) (UniProt Q9UQB9); details: Compound concentration 1000.0 nM
[22] = biological target: Serine/threonine-protein kinase Nek6 (Homo sapiens) (UniProt Q9HC98); details: Compound concentration 1000.0 nM
[23] = biological target: Cyclin-dependent kinase-like 2 (Homo sapiens) (UniProt Q92772); details: Compound concentration 1000.0 nM
[24] = system: Tyrosine-protein kinase ABL1 (Homo sapiens), P00519 [Y253F]; details: Compound concentration 1000.0 nM
[25] = biological target: Casein kinase II subunit alpha' (Homo sapiens) (UniProt P19784); details: Compound concentration 1000.0 nM
[26] = biological target: Inhibitor of nuclear factor kappa-B kinase subunit beta (Homo sapiens) (UniProt O14920); details: Compound concentration 1000.0 nM
[27] = biological target: Phosphatidylinositol 5-phosphate 4-kinase type-2 gamma (Homo sapiens) (UniProt Q8TBX8); details: Compound concentration 1000.0 nM
[28] = biological target: Ribosomal protein S6 kinase alpha-6 (Homo sapiens) (UniProt Q9UK32); details: Compound concentration 1000.0 nM
[29] = biological target: Cyclin-dependent kinase 16 (Homo sapiens) (UniProt Q00536); details: Compound concentration 1000.0 nM
Histamine H3 receptor = Histamine H3 receptor (Homo sapiens, UniProt Q9Y5N1); test: GPCRScan assay: inhibition of H3; parameters: radioligand conc. used [nm] 0.5 – 1.0, parental cells HEK Flp-In
[30] = biological target: Serine/threonine-protein kinase WNK2 (Homo sapiens) (UniProt Q9Y3S1); details: Compound concentration 1000.0 nM
[31] = biological target: Serine/threonine-protein kinase DCLK2 (Homo sapiens) (UniProt Q8N568); details: Compound concentration 1000.0 nM
[32] = biological target: Serine/threonine-protein kinase 35 (Homo sapiens) (UniProt Q8TDR2); details: Compound concentration 1000.0 nM
[33] = biological target: Serine/threonine-protein kinase 38 (Homo sapiens) (UniProt Q15208); details: Compound concentration 1000.0 nM
[34] = biological target: Interleukin-1 receptor-associated kinase 1 (Homo sapiens) (UniProt P51617); details: Compound concentration 1000.0 nM
[35] = biological target: Interferon-induced, double-stranded RNA-activated protein kinase (Homo sapiens) (UniProt P19525); details: Compound concentration 1000.0 nM
[36] = biological target: Serine/threonine-protein kinase PAK 3 (Homo sapiens) (UniProt O75914); details: Compound concentration 1000.0 nM
[37] = biological target: Mitogen-activated protein kinase kinase kinase 9 (Homo sapiens) (UniProt P80192); details: Compound concentration 1000.0 nM
[38] = biological target: Serine/threonine-protein kinase NLK (Homo sapiens) (UniProt Q9UBE8); details: Compound concentration 1000.0 nM
[39] = biological target: Tyrosine-protein kinase ZAP-70 (Homo sapiens) (UniProt P43403); details: Compound concentration 1000.0 nM
[40] = biological target: Tyrosine-protein kinase Srms (Homo sapiens) (UniProt Q9H3Y6); details: Compound concentration 1000.0 nM
[41] = system: Receptor-type tyrosine-protein kinase FLT3 (Homo sapiens), P36888 [UNDEFINED MUTATION]; details: Compound concentration 1000.0 nM
[42] = biological target: Interleukin-1 receptor-associated kinase 4 (Homo sapiens) (UniProt Q9NWZ3); details: Compound concentration 1000.0 nM
[43] = biological target: Hepatocyte growth factor receptor (Homo sapiens) (UniProt P08581); details: Compound concentration 1000.0 nM

Histamine H3 receptor, sequence (Q9Y5N1 whole entry): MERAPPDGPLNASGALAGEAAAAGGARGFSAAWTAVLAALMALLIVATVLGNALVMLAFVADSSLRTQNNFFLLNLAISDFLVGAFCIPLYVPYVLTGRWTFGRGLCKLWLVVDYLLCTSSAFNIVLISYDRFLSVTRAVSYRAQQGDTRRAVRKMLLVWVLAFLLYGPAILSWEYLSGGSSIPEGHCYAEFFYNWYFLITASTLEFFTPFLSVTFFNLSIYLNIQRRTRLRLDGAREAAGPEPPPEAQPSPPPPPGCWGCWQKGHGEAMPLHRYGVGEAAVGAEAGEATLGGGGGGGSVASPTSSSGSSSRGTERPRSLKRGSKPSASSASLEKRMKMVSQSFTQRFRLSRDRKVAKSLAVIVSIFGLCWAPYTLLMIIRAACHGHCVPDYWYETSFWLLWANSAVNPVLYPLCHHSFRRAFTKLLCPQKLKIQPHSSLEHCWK
Inhibitor of nuclear factor kappa-B kinase subunit beta (Homo sapiens), sequence (O14920 whole entry): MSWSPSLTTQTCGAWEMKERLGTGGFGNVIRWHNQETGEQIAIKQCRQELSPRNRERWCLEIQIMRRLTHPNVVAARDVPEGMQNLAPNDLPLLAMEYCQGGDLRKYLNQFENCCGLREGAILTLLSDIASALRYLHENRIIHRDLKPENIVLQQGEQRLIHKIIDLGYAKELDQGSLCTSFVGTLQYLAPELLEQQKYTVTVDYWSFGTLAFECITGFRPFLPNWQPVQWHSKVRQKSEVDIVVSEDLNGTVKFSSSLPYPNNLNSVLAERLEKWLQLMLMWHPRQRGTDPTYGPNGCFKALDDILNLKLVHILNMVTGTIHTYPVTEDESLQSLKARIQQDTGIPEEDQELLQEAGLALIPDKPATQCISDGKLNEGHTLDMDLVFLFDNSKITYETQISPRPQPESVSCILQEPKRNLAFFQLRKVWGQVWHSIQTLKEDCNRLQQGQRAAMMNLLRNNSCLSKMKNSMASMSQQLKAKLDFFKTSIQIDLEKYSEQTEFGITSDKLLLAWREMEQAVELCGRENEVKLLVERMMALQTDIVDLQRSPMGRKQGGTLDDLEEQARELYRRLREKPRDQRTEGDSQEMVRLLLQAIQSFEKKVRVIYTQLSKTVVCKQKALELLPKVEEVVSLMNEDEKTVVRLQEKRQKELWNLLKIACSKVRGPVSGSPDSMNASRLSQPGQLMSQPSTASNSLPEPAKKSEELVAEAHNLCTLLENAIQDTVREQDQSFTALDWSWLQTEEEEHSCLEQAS
Serine/threonine-protein kinase MRCK beta (Homo sapiens), sequence (Q9Y5S2 whole entry): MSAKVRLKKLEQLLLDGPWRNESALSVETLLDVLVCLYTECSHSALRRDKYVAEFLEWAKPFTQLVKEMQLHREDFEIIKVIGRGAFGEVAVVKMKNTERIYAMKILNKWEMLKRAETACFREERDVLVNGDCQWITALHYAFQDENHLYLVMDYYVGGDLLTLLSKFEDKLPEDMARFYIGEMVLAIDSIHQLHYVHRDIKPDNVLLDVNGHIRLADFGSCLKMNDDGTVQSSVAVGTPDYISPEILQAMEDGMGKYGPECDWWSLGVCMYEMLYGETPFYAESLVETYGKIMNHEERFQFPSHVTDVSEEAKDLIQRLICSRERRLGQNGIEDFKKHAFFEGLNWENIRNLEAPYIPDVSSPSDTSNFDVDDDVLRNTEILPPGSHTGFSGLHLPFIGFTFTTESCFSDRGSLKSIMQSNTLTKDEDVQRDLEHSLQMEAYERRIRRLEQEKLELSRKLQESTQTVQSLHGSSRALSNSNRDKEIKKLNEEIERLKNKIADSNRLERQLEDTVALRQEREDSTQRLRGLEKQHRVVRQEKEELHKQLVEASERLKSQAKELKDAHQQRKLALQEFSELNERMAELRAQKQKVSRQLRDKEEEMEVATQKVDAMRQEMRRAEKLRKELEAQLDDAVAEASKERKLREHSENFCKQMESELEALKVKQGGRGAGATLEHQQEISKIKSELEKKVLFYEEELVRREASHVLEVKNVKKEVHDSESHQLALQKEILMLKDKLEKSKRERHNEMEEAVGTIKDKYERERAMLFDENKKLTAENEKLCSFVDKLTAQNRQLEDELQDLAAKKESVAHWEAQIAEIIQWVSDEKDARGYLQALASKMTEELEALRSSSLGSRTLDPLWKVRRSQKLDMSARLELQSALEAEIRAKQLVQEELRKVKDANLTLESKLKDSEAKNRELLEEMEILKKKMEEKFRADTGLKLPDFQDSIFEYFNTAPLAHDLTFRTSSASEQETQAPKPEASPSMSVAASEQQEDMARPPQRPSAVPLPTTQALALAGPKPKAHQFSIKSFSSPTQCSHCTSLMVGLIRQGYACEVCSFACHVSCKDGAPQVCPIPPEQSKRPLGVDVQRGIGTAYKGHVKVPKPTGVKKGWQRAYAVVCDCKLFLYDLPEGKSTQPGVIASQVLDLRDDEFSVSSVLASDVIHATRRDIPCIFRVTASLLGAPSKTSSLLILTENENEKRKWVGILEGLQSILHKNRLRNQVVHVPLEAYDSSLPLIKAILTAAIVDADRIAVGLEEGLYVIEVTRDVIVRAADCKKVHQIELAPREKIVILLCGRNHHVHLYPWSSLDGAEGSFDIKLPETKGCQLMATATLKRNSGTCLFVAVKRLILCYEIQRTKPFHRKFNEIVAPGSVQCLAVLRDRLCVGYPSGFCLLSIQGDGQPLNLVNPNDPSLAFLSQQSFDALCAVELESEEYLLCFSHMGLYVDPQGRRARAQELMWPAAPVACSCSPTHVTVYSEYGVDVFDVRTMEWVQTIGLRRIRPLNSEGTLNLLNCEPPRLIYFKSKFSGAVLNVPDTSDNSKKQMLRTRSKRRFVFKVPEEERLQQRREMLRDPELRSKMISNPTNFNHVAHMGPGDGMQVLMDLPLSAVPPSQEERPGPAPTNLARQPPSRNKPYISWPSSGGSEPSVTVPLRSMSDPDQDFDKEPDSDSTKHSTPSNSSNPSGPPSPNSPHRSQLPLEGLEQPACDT
Receptor-type tyrosine-protein kinase FLT3 (Homo sapiens), P36888 [UNDEFINED MUTATION], sequence (P36888 whole entry, looked up, change not shown): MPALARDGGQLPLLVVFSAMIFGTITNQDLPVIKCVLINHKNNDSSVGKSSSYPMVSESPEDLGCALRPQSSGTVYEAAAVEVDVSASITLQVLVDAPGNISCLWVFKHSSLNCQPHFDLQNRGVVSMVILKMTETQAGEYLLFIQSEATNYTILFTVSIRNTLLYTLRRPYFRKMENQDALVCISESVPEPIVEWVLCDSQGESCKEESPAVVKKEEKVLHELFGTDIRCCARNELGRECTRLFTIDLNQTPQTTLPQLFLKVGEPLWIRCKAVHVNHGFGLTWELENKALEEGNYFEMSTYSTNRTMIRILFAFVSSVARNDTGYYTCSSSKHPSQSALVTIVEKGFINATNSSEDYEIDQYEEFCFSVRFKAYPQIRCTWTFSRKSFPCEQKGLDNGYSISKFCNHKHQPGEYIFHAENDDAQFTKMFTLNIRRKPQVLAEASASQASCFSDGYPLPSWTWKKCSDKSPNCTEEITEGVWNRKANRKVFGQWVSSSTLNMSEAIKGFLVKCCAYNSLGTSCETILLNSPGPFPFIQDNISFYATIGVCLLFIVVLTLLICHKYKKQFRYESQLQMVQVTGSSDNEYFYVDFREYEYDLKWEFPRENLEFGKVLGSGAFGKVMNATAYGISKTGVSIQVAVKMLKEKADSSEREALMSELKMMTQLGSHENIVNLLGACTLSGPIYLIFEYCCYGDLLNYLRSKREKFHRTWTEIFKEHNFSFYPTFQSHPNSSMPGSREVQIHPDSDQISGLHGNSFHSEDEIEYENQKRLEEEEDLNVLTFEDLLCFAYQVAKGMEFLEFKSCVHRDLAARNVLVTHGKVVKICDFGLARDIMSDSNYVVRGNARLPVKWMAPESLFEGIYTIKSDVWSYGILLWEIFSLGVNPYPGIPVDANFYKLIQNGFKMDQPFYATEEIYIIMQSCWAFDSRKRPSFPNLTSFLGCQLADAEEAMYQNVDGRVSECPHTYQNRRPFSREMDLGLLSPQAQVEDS
Serine/threonine-protein kinase DCLK2 (Homo sapiens), sequence (Q8N568 whole entry): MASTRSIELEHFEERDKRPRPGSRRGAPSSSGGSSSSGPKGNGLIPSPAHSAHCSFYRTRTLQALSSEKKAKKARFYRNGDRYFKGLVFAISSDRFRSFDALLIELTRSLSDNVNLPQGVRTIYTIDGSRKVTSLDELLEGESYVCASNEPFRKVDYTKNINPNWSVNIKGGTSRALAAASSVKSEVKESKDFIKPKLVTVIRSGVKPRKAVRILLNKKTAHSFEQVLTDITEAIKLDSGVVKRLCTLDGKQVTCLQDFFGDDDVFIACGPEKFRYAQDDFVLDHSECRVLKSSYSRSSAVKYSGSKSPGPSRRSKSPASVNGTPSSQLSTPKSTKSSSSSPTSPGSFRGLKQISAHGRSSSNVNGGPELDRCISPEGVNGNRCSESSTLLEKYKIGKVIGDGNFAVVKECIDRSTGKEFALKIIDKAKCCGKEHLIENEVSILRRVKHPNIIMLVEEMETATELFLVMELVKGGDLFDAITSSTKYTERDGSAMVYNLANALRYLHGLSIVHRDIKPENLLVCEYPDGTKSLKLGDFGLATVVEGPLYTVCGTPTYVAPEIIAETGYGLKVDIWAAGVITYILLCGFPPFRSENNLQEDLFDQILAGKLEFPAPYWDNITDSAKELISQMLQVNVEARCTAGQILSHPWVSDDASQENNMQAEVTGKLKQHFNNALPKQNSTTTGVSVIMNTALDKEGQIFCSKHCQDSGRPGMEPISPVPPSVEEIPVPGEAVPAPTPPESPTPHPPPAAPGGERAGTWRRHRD
Aurora kinase C (Homo sapiens), sequence (Q9UQB9 whole entry): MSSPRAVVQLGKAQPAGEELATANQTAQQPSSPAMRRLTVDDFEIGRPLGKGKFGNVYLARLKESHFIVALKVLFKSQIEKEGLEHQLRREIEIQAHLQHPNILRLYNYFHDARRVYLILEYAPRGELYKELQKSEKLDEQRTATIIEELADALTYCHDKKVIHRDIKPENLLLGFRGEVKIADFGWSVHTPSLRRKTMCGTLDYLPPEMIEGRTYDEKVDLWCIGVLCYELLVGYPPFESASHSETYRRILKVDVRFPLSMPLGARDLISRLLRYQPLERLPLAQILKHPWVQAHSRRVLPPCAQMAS

CC(=O)C1=C(C)N(c2cccc(C(F)(F)F)c2)C(=O)N[C@@H]1c1ccc(C#N)nc1 [BAY-678]
residual activity [1]: 100% | residual activity [2]: 100% | residual activity [3]: 67.1% | residual activity [4]: 95.2% | residual activity [5]: 100% | residual activity [6]: 100% | residual activity [7]: 98.1% | residual activity [8]: 100% | residual activity [9]: 100% | residual activity [10]: 71.1% | residual activity [11]: 100% | residual activity [12]: 85.3% | residual activity [13]: 92.9% | residual activity [14]: 92.3% | residual activity [15]: 92.7% | residual activity [16]: 96.9% | inhibition [17]: 50% | residual activity [18]: 100% | residual activity [19]: 85.9% | residual activity [20]: 100% | residual activity [21]: 100% | residual activity [22]: 100% | residual activity [23]: 75.4% | residual activity [24]: 100% | residual activity [25]: 75.7% | residual activity [26]: 100% | residual activity [27]: 80.7% | residual activity [28]: 100% | residual activity [29]: 100% | Ki (Histamine H3 receptor; read-out: Ki): 3070 nM | Ki (Histamine H3 receptor; read-out: pKi (converted)): 2820 nM | residual activity [30]: 94% | residual activity [31]: 88% | residual activity [32]: 85.9% | residual activity [33]: 94.1% | residual activity [34]: 100% | residual activity [35]: 83.4% | residual activity [36]: 86.3% | residual activity [37]: 94% | residual activity [38]: 93% | residual activity [39]: 88.1% | residual activity [40]: 97.9% | residual activity [41]: 87.4% | residual activity [42]: 100% | residual activity [43]: 98.1%
